The assay deals with sows. Put plainly: Example 1: top dress with a single ingredient fed to pregnant sows from day 80 of gestation to parturition; colostrum intake and gain of litters. The assay is classed as in vivo, pigs. The settings on record: for Total colostrum intake per litter / Average daily gain to day 7, kg per litter: corrected for litter size, sorbic acid 5 g; for Total colostrum intake per litter: 100 g/day top dress, day 80 of gestation up to parturition, betaine 3 g daily, estimated by Theil et al. algorithm; for Average daily gain to day 7, kg per litter: betaine 3 g daily in 100 g top dress.

As to `C[N+](C)(C)CC(=O)[O-]` [Betaine, trimethylglycine], the “Average daily gain to day 7 compared to the control (in words)” value was “negative effect”; the “Colostrum intake per litter compared to the control (in words)” value is “substantially lower”; the “Total colostrum intake per litter” value is on record as 5784 g; the “Average daily gain to day 7, kg per litter” value turned out to be 16.1 kg per litter.
Turning to `CC=CC=CC(=O)O` [Sorbic acid, 2,4-hexadienoic acid], the “Average daily gain to day 7 compared to the control (in words)” value is “same result as the control”; the “Colostrum intake per litter compared to the control (in words)” value is on record as “slightly lower”; the “Total colostrum intake per litter” value was 6227 g; the “Average daily gain to day 7, kg per litter” value was 18.2 kg per litter.

The values are drawn from patent publication US12186289B2, “Compositions for feeding a pregnant animal” (Nutreco IP Assets B.V., priority 2018, dated 2025).
